According to patent US20210315969A1, “GLYCOPROTEINS HAVING LIPID MOBILIZING PROPERTIES AND THERAPEUTIC USES THEREOF” (Aston University, priority 2008, published 2021):

Key:
murine myotubes = assay: Protein degradation and synthesis in myotubes subjected to high glucose; assay type: cell-based
Experimental: FIGS. 18A and 18B is a graphical diagram showing phenylalanine release (FIG. 18A) and protein synthesis (FIG. 18B) in C2Cl2 myotubes treated with and without ZAG for 4 h in the presence of various concentrations of glucose. Statistically significant c, P<0.001 from control; f, P<0.001 from glucose alone.
Statistically significant b, P<0.01 and c, P<0.001 from control; e, P<0.05 and f, P<0.001 from glucose alone.
Statistically significant b, P<0.01 and c, P<0.001 from control; e, P<0.05 and f, P<:0.001 from glucose alone; I, P<0.001 from glucose+SR.
This utilizes murine myotubes subjected. to high concentrations of glucose (10 or 25 mM).

epididymal adipocytes = assay: Lipolytic assay (glycerol release) in isolated mouse adipocytes; assay type: cell-based, mice; details: any adipocyte group
Experimental: Cell Culture and Purification of ZAG—Single-cell suspensions of white adipocytes were prepared from minced adipose deposits by incubation at 37° C. for […] in Krebs-Ringer biocarbonate buffer containing 1.5 ingml^−1 collagenase, and 4% bovine serum albumin under an atmosphere of 95% oxygen:5% CO2 as previously described. For time-course studies adipocytes were suspended in DMEM containing 10% fetal calf serum at a concentration of 10^5 cells ml^−1 and maintained under an atmosphere of 10% CO2 in air at 37° C. Human 293 cells transfected with a plasmid containing human ZAG were seeded at a concentration of 10^5 cells ml^−1 in FreeStyle medium and maintained under an atmosphere of 5% CO2 in air at 37° C. Maximal protein levels (16 μgml^−1) were obtained after 14 days of culture. […]
Lipolytic Assay—Samples to be assayed were incubated with 10^5 to 2×10^5 adipocytes for 2 h in 1 ml Krebs-Ringer bicarbonate buffer, pH 7.2. The concentration of glycerol released was determined enzymatically by the method of Wieland (Wieland, O. Glycerol UV method. In Methods of Enzymatic Analysis (ed. Bergmeyer, H. U.) (Academic Press, London, UK, pp 1404-1409, 1974)). Control samples containing adipocytes alone were analysed to determine the spontaneous glycerol release. Activity was expressed as nmol glycerol released/10^5 adipocytes/2 h.

adipocytes = assay: Expression of phospho HSL / HSL in adipocytes incubated 3 h with ZAG or isoprenaline; assay type: cell-based, mice

CCc1ccccc1OC[C@@H](O)CN[C@H]1CCCc2ccccc21 [SR59230A]
combination of ZAG and SR59230A on glucose induced protein degradation (murine myotubes; 10 and 25 mM glucose): additive rather than antagonistic
protein degradation induced by 10 and 25 mM glucose (murine myotubes; myotubes): attenuated
protein synthesis (murine myotubes; with 10 mM glucose): causes an increase in the depression of protein synthesis

CC(C)NCC(O)c1ccc(O)c(O)c1 (stereo not drawn) [isoprenaline]
extent of stimulation of lipolysis, isoprenaline versus ZAG (epididymal adipocytes): no significant difference
expression of phospho HSL in adipocytes (adipocytes; 3 h, isoprenaline 10 μM or ZAG 0.46 μM): not

COc1cccc(-c2cc(=O)c3ccccc3o2)c1N [PD98059]
effect on ZAG-induced expression of HSL in ep adipocytes (adipocytes; PD98059 10 μM, adipocytes incubated with ZAG for 3 h): attenuated the increase in expression of HSL
